Source: patent US20140335052A1, “COMBINATION THERAPY FOR TREATING HCV INFECTION IN AN HCV-HIV COINFECTED PATIENT POPULATION” (BOEHRINGER INGELHEIM INTERNATIONAL GMBH, priority 2012, published 2014)
Marks after values point to notes of the source that are not given here.

How the values were obtained:
HCV GT1 = HCV GT1 mono-infected TN patients; 240 mg QD FDV plus PegIFN/RBV; study 1220.5; cited from earlier work
[1] = Phase III trial of FDV plus PegIFN/RBV in HCV/HIV coinfected patients: safety (adverse events, HIV RNA suppression); assay type: in vivo, human
Method: (§1) Safety and Efficacy of 120 mg and 240 mg Compound (1) Once Daily in Combination With Pegylated Interferon Alpha 2a (PegIFN) and Ribavirin (RBV) for Treatment of Chronic Hepatitis C (HCV) Genotype 1 Infection in HIV/HCV Co-infected Patients. A Multinational, Randomised, Parallel Group, Open-label Trial.
(§2) The aim of this trial is to evaluate the efficacy and the safety of Compound (1) given for 12 or 24 weeks in combination with PegIFN/RBV given for 24 or up to 48 weeks in HCV treatment-naive or relapsers patients coinfected with HIV. Patients who achieve reduction of HCV viral load according to Early Treatment Success (ETS) criteria will be randomized 1:1 to stop triple therapy at 24 weeks, or continue PegIFN/RBV for 48 week treatment duration. Patients without ETS continue PegIFN/RBV for 48 week treatment duration.
(§3) Individuals co-infected with HCV/HIV who were HCV treatment-naïve (TN) or relapsed after previous HCV therapy were randomized to receive FDV 120 or 240 mg QD for 12 or 24 weeks, in combination with PegIFN (180 μg once weekly) and weight-based RBV for 24 or 48 weeks (response-guided). Patients on efavirenz- or PI-based antiretroviral therapy (ART) were allocated to receive FDV 240 mg or 120 mg QD, respectively; those receiving other ART or no ART were randomized to either FDV dose. Interim data remains blinded for FDV dose. Week 12 interim data are presented.
HCV RNA was BLD at Week 4/Week 12 in 64%/64% of patients not on ART, and in 63%/85% of patients receiving ART. […] For example, in a prior study in HCV GT1 mono-infected TN patients treated with 240 mg QD FDV plus PegIFN/RBV (Boehringer Ingelheim, data on file, Clinical Trial Report for study 1220.5, U12-2567-01), HCV RNA was BLQ at week 4 and BLD at week 12 in 94% (133/142) and 93% (132/142) of patients, respectively. […] These preliminary on-treatment efficacy data are promising given that a) 17% of the coinfected patients had cirrhosis (patients with cirrhosis were not included in the 1220.5 study), b) preliminary efficacy data in HCV/HIV coinfected represent sponsor-blinded results of both FDV dose groups (e.g., 120 mg QD and 240 mg QD FDV), and c) the HCV GT1/HIV co-infected patient population is historically a more difficult-to-treat patient population with substantially lower HCV cure rates with the current standard of care treatment of pegIFN and RBV when compared to HCV GT1 monoinfected patients. The most frequent adverse events (AEs) were those known for PegIFN/RBV treatment: nausea (37%), fatigue (33%) and diarrhea (27%). Serious AEs were reported in 32 (10%) patients (including 2 deaths; none considered related to study medications). To date, 18 patients discontinued early due to AEs.

HCV genotype 1 = assay: Phase III trial of FDV plus PegIFN/RBV in HCV/HIV coinfected patients: virologic response (plasma HCV RNA), Week 12 interim data; assay type: in vivo, human; conditions: for Virologic response Week 4 BLD / Virologic response Week 12 BLD: HCV RNA <15 IU/mL, not detected; for Virologic response Week 4 BLQ / Virologic response Week 12 BLQ: HCV RNA <25 IU/mL; for Virologic response Week 4 BLQ: FDV 120 or 240 mg QD (dose blinded) plus PegIFN/RBV; for ETS (Week 4 BLQ and Week 8 BLD): early treatment success
Method: For the clinical trial described below, the Compound (1) drug product will be administered as a softgel capsule lipid-based formulation containing Compound (1) sodium salt. All references to “Compound (1)” in the below clinical study is the sodium salt form.
as §1, §2
• Sustained Virological Response (SVR): Plasma Hepatitis C Virus (HCV) Ribonucleic Acid (RNA) level <25 IU/mL, undetected at week 12 after the planned treatment duration.
HCV RNA level<25 IU/mL (undetected) 24 weeks after the originally planned treatment duration. • Early Treatment Success (ETS): Plasma HCV RNA level<25 IU/mL (detected or undetected) at Week 4 and HCV RNA<25 IU/mL, undetected at Week 8 and have not discontinued any study drug prior to week 24. • Alanine Aminotransferase normalisation: Alanine Aminotransferase in normal range 24 weeks after the end of the originally planned treatment duration
Inclusion criteria (selected): • 1. Chronic hepatitis C (HCV) genotype 1 infection • 2. Chronic Human Immunodeficiency Virus (HIV)-1 infection • 3. HCV treatment naive or HCV treatment experienced but only relapsers • 4. Age 18 to 70 years • 5. […] HCV viral load >1.000 IU/mL • 7. No AIDS-defining illness during 6 months prior to screening Exclusion criteria (selected): • 1. HCV infection of mixed genotype (1/2, 1/3, 1/4) • 2. Evidence of acute or chronic liver […] • 3. Hepatitis B virus (HBV) infection with presence of HBs-Ag • 4. Active malignancy or history or malignancy within the last 5 years • 5. Received concomitant systemic antiviral (other than antiretroviral), hematopoietic growth factor or immunomodulatory treatment in 28 days prior enrollment. • 6. Decompensated liver disease, as evidenced by ascites, hepatic encephalopathy, esophageal variceal bleeding, and/or laboratory values that add up to >/=7 points according tho the Child-Turcotte-Pugh classification • 7. Hemoglobin </=11 g/dL for women and </=12 g/dL for men • 8. Active autoimmune disease, including autoimmune hepatitis • 9. Known hypersensitivity to any ingredient of the study drugs
as §3

[2] = HCV/HIV coinfected patients (308 treated), interim
[3] = HCV/HIV co-infected TN patient population, interim data restated in text, FDV plus PegIFN/RBV
[4] = Relapsers (N = 69), FDV plus PegIFN/RBV
[5] = TN patients (N = 239), FDV plus PegIFN/RBV
[6] = Total (N = 308), FDV plus PegIFN/RBV
[7] = patients not on ART, FDV plus PegIFN/RBV
[8] = patients receiving ART, FDV plus PegIFN/RBV

In the case of `C=C[C@@H]1C[C@]1(NC(=O)[C@@H]1C[C@@H](Oc2cc(-c3csc(C(=O)NC(C)C)n3)nc3c(Br)c(OC)ccc23)CN1C(=O)[C@@H](NC(=O)OC1CCCC1)C(C)(C)C)C(=O)O` [FDV, 1-{[4-[8-Bromo-2-(2-isopropylcarbamoyl-thiazol-4-yl)-7-methoxy-quinolin-4-yloxy]-1-(R)-(2-cyclopentyloxycarbonylamino-3,3-(S)-dimethyl-butyryl)-pyrrolidine-(S)-2-carbonyl]-amino}-2-(S)-vinyl-cyclopropane-(R)-carboxylic acid], the “HCV RNA BLD at week 12, number of patients of total” value (HCV GT1) is given as 132/142, the “HCV RNA BLD at week 12, patients” value (HCV GT1) is given as 93% and the “HCV RNA BLQ at week 4, number of patients of total” value (HCV GT1) is given as 133/142. The “HCV RNA BLQ at week 4, patients” value (HCV GT1) was 94%, the “Adverse event: diarrhea” value [1, 2] was 27% and the “Adverse event: fatigue” value [1, 2] was 33%. For the same compound, the “Adverse event: nausea” value [1, 2] was 37%, the “Serious AEs reported, number of patients” value [1, 2] was 32 patients and the “Serious AEs reported, share of patients” value [1, 2] was 10%. For the same compound, the “Deaths (among serious AEs; none considered related to study medications)” value ([1]; HCV/HIV coinfected patients, interim) was 2 deaths, the “Patients discontinued early due to AEs” value ([1]; HCV/HIV coinfected patients, to date (interim)) was 18 patients and the “Loss of HIV RNA suppression” value ([1]; patients on ART) was “No patient on ART experienced loss of HIV RNA suppression”. The “Early virologic response rates” value (HCV genotype 1; HCV GT1 patients coinfected with HIV, Weeks 4 and 12, FDV plus PegIFN/RBV, interim analysis) was “high early virologic response rates”, the “HCV RNA BLD at week 12, patients” value (HCV genotype 1; [3]) was 82% and the “HCV RNA BLQ at week 4, patients” value (HCV genotype 1; [3]) was 80%. The “Virologic response Week 4 BLD” value (HCV genotype 1; [4]) was 51 (74) n (%), the “Virologic response Week 12 BLD” value (HCV genotype 1; [4]) was 63 (91) n (%) and the “Virologic response Week 4 BLQ” value (HCV genotype 1; Relapsers (N = 69)) was 63 (91)^b n (%). For the same compound, the “Virologic response Week 12 BLQ” value (HCV genotype 1; [4]) was 64 (93)^d n (%), the “ETS (Week 4 BLQ and Week 8 BLD)” value (HCV genotype 1; [4]) was 61 (88) n (%) and the “Virologic response Week 4 BLD” value (HCV genotype 1; [5]) was 143 (60) n (%). The “Virologic response Week 12 BLD” value (HCV genotype 1; [5]) was 195 (82) n (%), the “Virologic response Week 4 BLQ” value (HCV genotype 1; TN patients (N = 239)) was 191 (80)^a n (%) and the “Virologic response Week 12 BLQ” value (HCV genotype 1; [5]) was 206 (86)^c n (%). For the same compound, the “ETS (Week 4 BLQ and Week 8 BLD)” value (HCV genotype 1; [5]) was 184 (77)^e n (%), the “Virologic response Week 4 BLD” value (HCV genotype 1; [6]) was 194 (63) n (%) and the “Virologic response Week 12 BLD” value (HCV genotype 1; [6]) was 258 (84) n (%). For the same compound, the “Virologic response Week 4 BLQ” value (HCV genotype 1; Total (N = 308)) was 254 (82) n (%), the “Virologic response Week 12 BLQ” value (HCV genotype 1; [6]) was 270 (88) n (%) and the “ETS (Week 4 BLQ and Week 8 BLD)” value (HCV genotype 1; [6]) was 245 (80) n (%). The “HCV RNA BLD at Week 4, patients” value (HCV genotype 1; [7]) was 64%, the “HCV RNA BLD at week 12, patients” value (HCV genotype 1; [7]) was 64% and the “HCV RNA BLD at Week 4, patients” value (HCV genotype 1; [8]) was 63%. The “HCV RNA BLD at week 12, patients” value (HCV genotype 1; [8]) was 85%.
